In US9498483B2, “2,3,5-trisubstituted thiophene compounds and uses thereof” (priority 2010, dated 2016):

How the values were obtained:
[1] = test system: HCV replicon I389luc-ubi-neo/NS3-3′/ET in ET (Huh-lucubineo-ET) cells; assay: Replicon assay (Biological Example 2), luciferase readout; assay type: cell-based; conditions: Hepatitis C virus
Description: A cell line, ET (Huh-lucubineo-ET) was used for screening of compounds for inhibiting HCV RNA dependent RNA polymerase. The ET cell line was stably transfected with RNA transcripts harboring a I389luc-ubi-neo/NS3-3′/ET; replicon with firefly luciferase-ubiquitin-neomycin phosphotransferase fusion protein and EMCV-IRES driven NS3-5B polyprotein containing the cell culture adaptive mutations (E1202G; T12801; K1846T) (Krieger at al, 2001 and unpublished). The ET cells were grown in DMEM (Dulbeco's Modified Eagle's Medium), supplemented with 10% fetal calf serum, 2 mM Glutamine, Penicillin (100 IU/mL)/Streptomycin (100 μg/mL), 1× nonessential amino acids, and 250 μg/mL G418 (“Geneticin”). Reagents were all available through Life Technologies (Bethesda, Md.). The cells were plated at 0.5-1.0×10^4 cells/well in the 96 well plates and incubated for 24 hrs before adding test compound. The compounds were added to the cells to achieve a final concentration of 0.1 nM to 50 μM and a final DMSO (dimethylsulfoxide) concentration of 0.5%. Luciferase activity was measured 48 hours later by adding a lysis buffer and the substrate (Catalog number Glo-lysis buffer E2661 and Bright-Glo luciferase system E2620 Promega, Madison, Wis.). Cells should not be too confluent during the assay. Percent inhibition of replication data was plotted relative to no compound control. To determine the EC50 (effective concentration at which 50% of the maximum inhibition was observed), a 10 point, 3-fold serial dilution for each compound was used, which spans a concentration range of […]. EC50 values were calculated by fitting % inhibition at each concentration to the following equation: % inhibition=100%/[(EC50/[I])^b+1] where b was Hill's coefficient.
In other aspects the EC50 was equal to or less than 10 μM. In still other aspects the EC50 was equal to or less than 1 μM.

HCV polymerase = biological target: T1, HCV polymerase (Hepatitis C virus genotype 1b, UniProt Q9WMX2); assay: Polymerase assay of Biological Example 1 (IC50 values of Table 3); assay type: biochemical; conditions: IC50 values of Table 3, polymerase assay of Biological Example 1; read-out: NS5B-enzyme3
T1 construct: (His)6 (C); made in house; host or cells: XL-1 cells (E. coli, by own knowledge)
Description: A number of assays have been published to assess these activities. A general method that assesses the gross increase of HCV virus in culture was disclosed in U.S. Pat. No. 5,738,985 to Miles et al. In vitro assays have been reported in Ferrari et al. Jnl. of Vir., 73:1649-1654, 1999; Ishii et al., Hepatology, 29:1227-1235, 1999; Lohmann et al., Jnl of Bio. Chem., 274:10807-10815, 1999; and Yamashita et al., Jnl. of Bio. Chem., 273:15479-15486, 1998.
WO 97/12033, filed on Sep. 27, 1996, by Emory University, listing C. Hagedorn and A. Reinoldus as inventors, which claims priority to U.S. Provisional Patent Application Ser. No. 60/004,383, filed on September 1995, described an HCV polymerase assay that can be used to evaluate the activity of the of the compounds described herein. Another HCV polymerase assay has been reported by Bartholomeusz, et al., Hepatitis C Virus (HCV) RNA polymerase assay using cloned HCV non-structural proteins; Antiviral Therapy 1996:1 (Supp 4) 18-24.

[2] = ET cells, luciferase activity 48 hours after compound

Row | SMILES | IC50 ([1]; between 100 nM and 5.0 uM) [nM] | IC50 (HCV polymerase) [nM] | IC50 [1, 2] [nM]
1 | CC(C)(C)C#Cc1cc(N2C(=O)CN(S(=O)(=O)c3ccc4oc(=O)[nH]c4c3)C[C@H]2C2CCCCC2)c(C(=O)O)s1 [Compound 252, 3-[(R)-2-Cyclohexyl-6-oxo-4-(2-oxo-2,3-dihydro-benzooxazole-5-sulfonyl)-piperazin-1-yl]-5-(3,3-dimethyl-but-1-ynyl)-thiophene-2-carboxylic acid] | 100 to 5000 | 2 | 
2 | Cc1ccc(-c2cc(N3C(=O)C(C)(O)CCC3C3CCCCC3)c(C(=O)O)s2)cc1 (stereo not drawn) [Compound 324, 3-(6-Cyclohexyl-3-hydroxy-3-methyl-2-oxo-piperidin-1-yl)-5-p-tolyl-thiophene-2-carboxylic acid] | 100 to 5000 | 85 | 
3 | O=C(O)c1sc(-c2ccccc2)cc1N1C(=O)CN(S(=O)(=O)c2ccc(-c3ccc(CN4CCOCC4)cc3)nc2)C[C@H]1C1CCCCC1 [Compound 208, 3-{(R)-2-Cyclohexyl-4-[6-(4-morpholin-4-ylmethyl-phenyl)-pyridine-3-sulfonyl]-6-oxo-piperazin-1-yl}-5-phenyl-thiophene-2-carboxylic acid] |  | 1.4 | ≤ 100
4 | COCCN(CCOC)c1ccc(S(=O)(=O)N2CC(=O)N(c3cc(-c4ccccc4)sc3C(=O)O)C(C3CCCCC3)C2)cn1 (stereo not drawn) [Compound 80, 3-(4-{6-[Bis-(2-methoxy-ethyl)-amino]-pyridine-3-sulfonyl}-2-cyclohexyl-6-oxo-piperazin-1-yl)-5-phenyl-thiophene-2-carboxylic acid] |  | 6 | ≤ 100
5 | O=C(O)c1sc(-c2ccccc2)cc1N1C(=O)CN(S(=O)(=O)c2ccc(C(F)(F)F)cc2)CC1C1CCCCC1 (stereo not drawn) [Compound 54, 3-[2-Cyclohexyl-6-oxo-4-(4-trifluoromethyl-benzenesulfonyl)-piperazin-1-yl]-5-phenyl-thiophene-2-carboxylic acid] | 100 to 5000 | 18 | 
6 | CC(C)(C)OC(=O)N[C@H]1CCN(c2ccc(S(=O)(=O)N3CC(=O)N(c4cc(-c5ccccc5)sc4C(=O)O)[C@H](C4CCCCC4)C3)cn2)C1 [Compound 165, 3-{(R)-4-[6-((S)-3-tert-Butoxycarbonylamino-pyrrolidin-1-yl)-pyridine-3-sulfonyl]-2-cyclohexyl-6-oxo-piperazin-1-yl}-5-phenyl-thiophene-2-carboxylic acid] |  | 2 | ≤ 100
7 | CC(C)(C)c1ccc(-c2cc(N3C(=O)CCCC3C3CCCCC3)c(C(=O)O)s2)cc1 (stereo not drawn) [Compound 113, 5-(4-tert-Butyl-phenyl)-3-(2-cyclohexyl-6-oxo-piperidin-1-yl)-thiophene-2-carboxylic acid] | 100 to 5000 | 44 | 
8 | CC(C)(C)C#Cc1cc(N2C(=O)CN(S(=O)(=O)c3ccc(OC(F)(F)F)cc3)C[C@H]2C2CCCCC2)c(C(=O)O)s1 [Compound 223, 3-[(R)-2-Cyclohexyl-6-oxo-4-(4-trifluoromethoxy-benzenesulfonyl)-piperazin-1-yl]-5-(3,3-dimethyl-but-1-ynyl)-thiophene-2-carboxylic acid] | 100 to 5000 | 9 | 
9 | COc1ccc(S(=O)(=O)N2CC(=O)N(c3cc(C#CC(C)(C)C)sc3C(=O)O)[C@H](C3CCCCC3)C2)cc1OC [Compound 277, 3-[(R)-2-Cyclohexyl-4-(3,4-dimethoxy-benzenesulfonyl)-6-oxo-piperazin-1-yl]-5-(3,3-dimethyl-but-1-ynyl)-thiophene-2-carboxylic acid] |  | 2 | ≤ 100
10 | CC1CN(c2ccc(S(=O)(=O)N3CC(=O)N(c4cc(-c5ccccc5)sc4C(=O)O)C(C4CCCCC4)C3)cn2)CC(C)O1 (stereo not drawn) [Compound 87, 3-{2-Cyclohexyl-4-[6-(2,6-dimethyl-morpholin-4-yl)-pyridine-3-sulfonyl]-6-oxopiperazin-1-yl}-5-phenyl-thiophene-2-carboxylic acid] |  | 5 | ≤ 100
11 | O=C(O)c1sc(-c2ccc(Cl)cc2)cc1N1C(=O)CN(S(=O)(=O)c2ccc(N3CC4CCC(C3)O4)nc2)C[C@H]1C1CCCCC1 [Compound 227, 5-(4-Chloro-phenyl)-3-{(R)-2-cyclohexyl-4-[6-(8-oxa-3-aza-bicyclo[3.2.1]oct-3-yl)-pyridine-3-sulfonyl]-6-oxo-piperazin-1-yl}-thiophene-2-carboxylic acid] |  | 1 | ≤ 100
12 | O=C(O)c1sc(-c2ccccc2)cc1N1C(=O)CN(S(=O)(=O)c2ccc(-c3ccc4c(c3)OCCCO4)nc2)C[C@H]1C1CCCCC1 [Compound 212, 3-{(R)-2-Cyclohexyl-4-[6-(3,4-dihydro-2H-benzo[b][1,4]dioxepin-7-yl)-pyridine-3-sulfonyl]-6-oxo-piperazin-1-yl}-5-phenyl-thiophene-2-carboxylic acid] |  | 2 | ≤ 100
13 | CC1CCN(S(=O)(=O)N2CC(=O)N(c3cc(-c4ccccc4)sc3C(=O)O)C(C3CCCCC3)C2)CC1 (stereo not drawn) [Compound 36, 3-[2-Cyclohexyl-4-(4-methyl-piperidine-1-sulfonyl)-6-oxo-piperazin-1-yl]-5-phenyl-thiophene-2-carboxylic acid] | 100 to 5000 | 58 | 
14 | COc1ccccc1S(=O)(=O)N1CC(=O)N(c2cc(C#CC(C)(C)C)sc2C(=O)O)[C@H](C2CCCCC2)C1 [Compound 258, 3-[(R)-2-Cyclohexyl-4-(2-methoxy-benzenesulfonyl)-6-oxo-piperazin-1-yl]-5-(3,3-dimethyl-but-1-ynyl)-thiophene-2-carboxylic acid] |  | 7 | ≤ 100
15 | O=C(N[C@H]1CC(=O)N(c2cc(-c3ccccc3)sc2C(=O)O)[C@H](C2CCCCC2)C1)c1ccccc1 [Compound 24, 3-((2S,4R)-4-Benzoylamino-2-cyclohexyl-6-oxo-piperidin-1-yl)-5-phenyl-thiophene-2-carboxylic acid] | 100 to 5000 | 44.5 | 
16 | C[C@@H]1CCCN1c1ccc(S(=O)(=O)N2CC(=O)N(c3cc(-c4ccc(F)cc4)sc3C(=O)O)[C@H](C3CCCCC3)C2)cn1 [Compound 185, 3-{(R)-2-Cyclohexyl-4-[6-((R)-2-methyl-pyrrolidin-1-yl)-pyridine-3-sulfonyl]-6-oxo-piperazin-1-yl}-5-(4-fluoro-phenyl)-thiophene-2-carboxylic acid] |  | 1 | ≤ 100
17 | O=C(O)c1sc(-c2ccc(Cl)cc2)cc1N1C(=O)COC[C@H]1C1CCCCC1 [Compound 293, 5-(4-Chloro-phenyl)-3-((R)-3-cyclohexyl-5-oxo-morpholin-4-yl)-thiophene-2-carboxylic acid] | 100 to 5000 | 5 | 
18 | CC(C)(C)C#Cc1cc(N2C(=O)C3(CCOCC3)OC[C@H]2C2CCCCC2)c(C(=O)O)s1 [Compound 325, 3-((R)-3-Cyclohexyl-5-oxo-1,9-dioxa-4-aza-spiro[5.5]undec-4-yl)-5-(3,3-dimethyl-but-1-ynyl)-thiophene-2-carboxylic acid] |  | 6 | ≤ 100
19 | C[C@H]1[C@@H](C2CCCCC2)N(c2cc(C#CC(C)(C)C)sc2C(=O)O)C(=O)N1C [Compound 237, 3-((4S,5R)-5-Cyclohexyl-3,4-dimethyl-2-oxo-imidazolidin-1-yl)-5-(3,3-dimethyl-but-1-ynyl)-thiophene-2-carboxylic acid] | 100 to 5000 | 42 | 
20 | O=C(O)c1sc(-c2ccccc2)cc1N1C(=O)CN(S(=O)(=O)c2cccc(Cl)c2Cl)CC1C1CCCCC1 (stereo not drawn) [Compound 111, 3-[2-Cyclohexyl-4-(2,3-dichloro-benzenesulfonyl)-6-oxo-piperazin-1-yl]-5-phenyl-thiophene-2-carboxylic acid] |  | 243 | ≥ 5000
21 | COc1ccc(S(=O)(=O)N2CC(=O)N(c3cc(C#CC(C)(C)C)sc3C(=O)O)[C@H](C3CCCCC3)C2)cc1 [Compound 190, 3-[(R)-2-Cyclohexyl-4-(4-methoxy-benzenesulfonyl)-6-oxo-piperazin-1-yl]-5-(3,3-dimethyl-but-1-ynyl)-thiophene-2-carboxylic acid] |  | 1 | ≤ 100
